Key:
Assay in all cases: cells
Type in all cases: functional, cell-based
Details in all cases: Homo sapiens
[1] = test system: COLO-800;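 also: growth inhibition of COLO-800 cells, read out with a cell viability assay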
Description: SANGER: Inhibition of human COLO-800 cell growth in a cell viability assay.

[2] = test system: COR-L88;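 also: growth inhibition of COR-L88 cells, read out with a cell viability assay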
Description: SANGER: Inhibition of human COR-L88 cell growth in a cell viability assay.

[3] = test system: D-263MG
Description: SANGER: Inhibition of human D-263MG cell growth in a cell viability assay.

[4] = test system: DMS-79;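 also: growth inhibition measured with a cell viability assay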
Description: SANGER: Inhibition of human DMS-79 cell growth in a cell viability assay.

[5] = test system: DSH1;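 also: growth inhibition of human DSH1 cells, measured with a cell viability readout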
Description: SANGER: Inhibition of human DSH1 cell growth in a cell viability assay.

[6] = test system: EM-2;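 also: growth inhibition of EM-2 cells, read out with a cell viability assay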
Description: SANGER: Inhibition of human EM-2 cell growth in a cell viability assay.

[7] = test system: ES8;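 also: growth inhibition of human ES8 cells, read out with a cell viability assay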
Description: SANGER: Inhibition of human ES8 cell growth in a cell viability assay.

[8] = test system: EW-3;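 also: cell viability assay read-out, IC50 reflects inhibition of growth of the EW-3 cells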
Description: SANGER: Inhibition of human EW-3 cell growth in a cell viability assay.

[9] = test system: GAK;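 also: cell growth inhibition read out by a cell viability assay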
Description: SANGER: Inhibition of human GAK cell growth in a cell viability assay.

[10] = test system: GI-ME-N;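 also: growth inhibition of human GI-ME-N cells, read out with a cell viability assay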
Description: SANGER: Inhibition of human GI-ME-N cell growth in a cell viability assay.

[11] = test system: GR-ST
Description: SANGER: Inhibition of human GR-ST cell growth in a cell viability assay.

[12] = test system: HAL-01;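 also: growth inhibition of human HAL-01 cells, read out with a cell viability assay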
Description: SANGER: Inhibition of human HAL-01 cell growth in a cell viability assay.

[13] = test system: HCC2218;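 also: cell viability assay read-out, with IC50 given as the concentration that inhibits growth of the cell line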
Description: SANGER: Inhibition of human HCC2218 cell growth in a cell viability assay.

[14] = test system: HL-60;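 also: growth inhibition of human HL-60 cells, read out with a cell viability assay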
Description: SANGER: Inhibition of human HL-60 cell growth in a cell viability assay.

[15] = test system: HOP-62;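 also: cell growth inhibition determined with a viability assay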
Description: SANGER: Inhibition of human HOP-62 cell growth in a cell viability assay.

[16] = test system: IST-MEL1;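 also: growth inhibition of the cell line, read out with a cell viability assay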
Description: SANGER: Inhibition of human IST-MEL1 cell growth in a cell viability assay.

[17] = test system: J-RT3-T3-5;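 also: cell viability assay measuring growth inhibition of human J-RT3-T3-5 cells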
Description: SANGER: Inhibition of human J-RT3-T3-5 cell growth in a cell viability assay.

[18] = test system: JAR;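 also: growth inhibition of human JAR cells determined with a cell viability assay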
Description: SANGER: Inhibition of human JAR cell growth in a cell viability assay.

[19] = test system: K5
Description: SANGER: Inhibition of human K5 cell growth in a cell viability assay.

[20] = test system: KALS-1;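 also: growth inhibition of KALS-1 cells, determined with a cell viability assay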
Description: SANGER: Inhibition of human KALS-1 cell growth in a cell viability assay.

[21] = test system: KINGS-1;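 also: cell viability assay measuring suppression of KINGS-1 cell growth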
Description: SANGER: Inhibition of human KINGS-1 cell growth in a cell viability assay.

[22] = test system: KMOE-2;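 also: growth inhibition of human KMOE-2 cells, read out with a cell viability assay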
Description: SANGER: Inhibition of human KMOE-2 cell growth in a cell viability assay.

[23] = test system: KS-1;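 also: growth inhibition of KS-1 cells, read out with a cell viability assay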
Description: SANGER: Inhibition of human KS-1 cell growth in a cell viability assay.

[24] = test system: KU812 cell line;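 also: growth inhibition of KU812 cells, read out with a cell viability assay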
Description: SANGER: Inhibition of human KU812 cell growth in a cell viability assay.

[25] = test system: KY821;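 also: growth inhibition of human KY821 cells, read out by a cell viability assay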
Description: SANGER: Inhibition of human KY821 cell growth in a cell viability assay.

[26] = test system: LB373-MEL-D;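 also: growth inhibition of the cell line, read out in a cell viability assay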
Description: SANGER: Inhibition of human LB373-MEL-D cell growth in a cell viability assay.

[27] = test system: LB771-HNC;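 also: growth inhibition of LB771-HNC human cells, read out with a cell viability assay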
Description: SANGER: Inhibition of human LB771-HNC cell growth in a cell viability assay.

[28] = test system: LNCaP-Clone-FGC
Description: SANGER: Inhibition of human LNCaP-Clone-FGC cell growth in a cell viability assay.

[29] = test system: MHH-NB-11;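 also: growth inhibition of human MHH-NB-11 cells, read out by a cell viability assay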
Description: SANGER: Inhibition of human MHH-NB-11 cell growth in a cell viability assay.

[30] = test system: MLMA;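 also: growth inhibition of MLMA cells (human), determined through a cell viability readout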
Description: SANGER: Inhibition of human MLMA cell growth in a cell viability assay.

[31] = test system: MOLT-16;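 also: growth inhibition of human MOLT-16 cells, read out with a cell viability assay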
Description: SANGER: Inhibition of human MOLT-16 cell growth in a cell viability assay.

[32] = test system: MOLT-4;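 also: growth inhibition of MOLT-4 cells, determined with a cell viability readout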
Description: SANGER: Inhibition of human MOLT-4 cell growth in a cell viability assay.

[33] = test system: MPP-89;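 also: growth inhibition of human MPP-89 cells, read out with a cell viability assay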
Description: SANGER: Inhibition of human MPP-89 cell growth in a cell viability assay.

[34] = test system: MS-1;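 also: growth inhibition of MS-1 cells, read out by cell viability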
Description: SANGER: Inhibition of human MS-1 cell growth in a cell viability assay.

[35] = test system: MSTO-211H
Description: SANGER: Inhibition of human MSTO-211H cell growth in a cell viability assay.

[36] = test system: NB10;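 also: growth inhibition of NB10 cells, read out by a cell viability assay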
Description: SANGER: Inhibition of human NB10 cell growth in a cell viability assay.

[37] = test system: NB13;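 also: cell viability readout measuring growth inhibition of human NB13 cells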
Description: SANGER: Inhibition of human NB13 cell growth in a cell viability assay.

[38] = test system: NCI-H1299;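 also: growth inhibition of human NCI-H1299 cells, read out by a cell viability assay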
Description: SANGER: Inhibition of human NCI-H1299 cell growth in a cell viability assay.

[39] = test system: NCI-H1304;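 also: growth inhibition of the cancer cell line, measured in a cell viability assay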
Description: SANGER: Inhibition of human NCI-H1304 cell growth in a cell viability assay.

[40] = test system: NCI-H1648;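 also: cell viability assay measuring inhibition of NCI-H1648 cell growth, from the Sanger screening data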
Description: SANGER: Inhibition of human NCI-H1648 cell growth in a cell viability assay.

[41] = test system: NCI-H1650;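 also: growth inhibition of human NCI-H1650 cells measured by a cell viability assay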
Description: SANGER: Inhibition of human NCI-H1650 cell growth in a cell viability assay.

[42] = test system: NCI-H2126;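 also: growth inhibition of the cancer cell line, determined with a cell viability readout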
Description: SANGER: Inhibition of human NCI-H2126 cell growth in a cell viability assay.

[43] = test system: NCI-H510A;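 also: growth inhibition of NCI-H510A cells, read out with a cell viability assay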
Description: SANGER: Inhibition of human NCI-H510A cell growth in a cell viability assay.

[44] = test system: NCI-H747;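 also: growth inhibition of human NCI-H747 cells, read out by a cell viability assay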
Description: SANGER: Inhibition of human NCI-H747 cell growth in a cell viability assay.

[45] = test system: NCI-H82;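 also: growth inhibition of NCI-H82 cells, measured with a cell viability readout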
Description: SANGER: Inhibition of human NCI-H82 cell growth in a cell viability assay.

[46] = test system: SNU1;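 also: growth inhibition of human NCI-SNU-1 cells, measured with a cell viability assay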
Description: SANGER: Inhibition of human NCI-SNU-1 cell growth in a cell viability assay.

[47] = test system: SNU-5;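 also: cell viability readout used to measure growth inhibition in human NCI-SNU-5 cells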
Description: SANGER: Inhibition of human NCI-SNU-5 cell growth in a cell viability assay.

[48] = test system: OCUB-M;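 also: growth inhibition of the cancer cell line, read out through a cell viability assay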
Description: SANGER: Inhibition of human OCUB-M cell growth in a cell viability assay.

[49] = test system: OS-RC-2;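 also: growth inhibition of human OS-RC-2 cells, measured by a cell viability assay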
Description: SANGER: Inhibition of human OS-RC-2 cell growth in a cell viability assay.

[50] = test system: SCC-15;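 also: growth inhibition of SCC-15 cells, read out with a cell viability assay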
Description: SANGER: Inhibition of human SCC-15 cell growth in a cell viability assay.

[51] = test system: SF-539;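 also: Read-out is a cell viability assay, with IC50 reflecting inhibition of cell growth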
Description: SANGER: Inhibition of human SF539 cell growth in a cell viability assay.

[52] = test system: SK-NEP-1;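 also: growth inhibition of human SK-NEP-1 cells, read out by a cell viability assay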
Description: SANGER: Inhibition of human SK-NEP-1 cell growth in a cell viability assay.

[53] = test system: SK-UT-1;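 also: growth inhibition of SK-UT-1 cells, measured by a cell viability assay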
Description: SANGER: Inhibition of human SK-UT-1 cell growth in a cell viability assay.

[54] = test system: 8-MG-BA;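 also: growth inhibition of 8-MG-BA cells, read out with a cell viability assay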
Description: SANGER: Inhibition of human 8-MG-BA cell growth in a cell viability assay.

[55] = test system: A3-KAW
Description: SANGER: Inhibition of human A3-KAW cell growth in a cell viability assay.

[56] = test system: ALL-PO
Description: SANGER: Inhibition of human ALL-PO cell growth in a cell viability assay.

[57] = test system: AM-38
Description: SANGER: Inhibition of human AM-38 cell growth in a cell viability assay.

[58] = test system: BT-474
Description: SANGER: Inhibition of human BT-474 cell growth in a cell viability assay.

[59] = test system: BV-173
Description: SANGER: Inhibition of human BV-173 cell growth in a cell viability assay.

[60] = test system: Becker
Description: SANGER: Inhibition of human Becker cell growth in a cell viability assay.

[61] = test system: C8166
Description: SANGER: Inhibition of human C8166 cell growth in a cell viability assay.

[62] = test system: TE-5
Description: SANGER: Inhibition of human TE-5 cell growth in a cell viability assay.

[63] = test system: TE-9
Description: SANGER: Inhibition of human TE-9 cell growth in a cell viability assay.

[64] = test system: U-266
Description: SANGER: Inhibition of human U-266 cell growth in a cell viability assay.

[65] = test system: VA-ES-BJ
Description: SANGER: Inhibition of human VA-ES-BJ cell growth in a cell viability assay.

[66] = test system: no-10
Description: SANGER: Inhibition of human no-10 cell growth in a cell viability assay.

SMILES: Cn1cc(/C=C2\C(=O)Nc3cccnc32)c2ccccc21
- IC50 [1]: > 2000 nM
- IC50 [2]: > 2000 nM
- IC50 [3]: > 2000 nM
- IC50 [4]: > 2000 nM
- IC50 [5]: > 2000 nM
- IC50 [6]: > 2000 nM
- IC50 [7]: > 2000 nM
- IC50 [8]: > 2000 nM
- IC50 [9]: > 2000 nM
- IC50 [10]: > 2000 nM
- IC50 [11]: > 2000 nM
- IC50 [12]: > 2000 nM
- IC50 [13]: > 2000 nM
- IC50 [14]: > 2000 nM
- IC50 [15]: 322 nM
- IC50 [16]: > 2000 nM
- IC50 [17]: > 2000 nM
- IC50 [18]: 972 nM
- IC50 [19]: > 2000 nM
- IC50 [20]: > 2000 nM
- IC50 [21]: > 2000 nM
- IC50 [22]: > 2000 nM
- IC50 [23]: > 2000 nM
- IC50 [24]: > 2000 nM
- IC50 [25]: > 2000 nM
- IC50 [26]: > 2000 nM
- IC50 [27]: > 2000 nM
- IC50 [28]: > 2000 nM
- IC50 [29]: > 2000 nM
- IC50 [30]: > 2000 nM
- IC50 [31]: > 2000 nM
- IC50 [32]: > 2000 nM
- IC50 [33]: > 2000 nM
- IC50 [34]: > 2000 nM
- IC50 [35]: > 2000 nM
- IC50 [36]: > 2000 nM
- IC50 [37]: > 2000 nM
- IC50 [38]: > 2000 nM
- IC50 [39]: > 2000 nM
- IC50 [40]: > 2000 nM
- IC50 [41]: > 2000 nM
- IC50 [42]: > 2000 nM
- IC50 [43]: > 2000 nM
- IC50 [44]: > 2000 nM
- IC50 [45]: > 2000 nM
- IC50 [46]: > 2000 nM
- IC50 [47]: > 2000 nM
- IC50 [48]: > 2000 nM
- IC50 [49]: > 2000 nM
- IC50 [50]: > 2000 nM
- IC50 [51]: > 2000 nM
- IC50 [52]: > 2000 nM
- IC50 [53]: > 2000 nM
- IC50 [54]: > 2000 nM
- IC50 [55]: > 2000 nM
- IC50 [56]: > 2000 nM
- IC50 [57]: > 2000 nM
- IC50 [58]: > 2000 nM
- IC50 [59]: > 2000 nM
- IC50 [60]: > 2000 nM
- IC50 [61]: > 2000 nM
- IC50 [62]: > 2000 nM
- IC50 [63]: > 2000 nM
- IC50 [64]: > 2000 nM
- IC50 [65]: > 2000 nM
- IC50 [66]: > 2000 nM

SMILES: Cc1[nH]c(/C=C2\C(=O)Nc3ccc(S(=O)(=O)Cc4c(Cl)cccc4Cl)cc32)c(C)c1C(=O)N1CCC[C@@H]1CN1CCCC1 [PHA-665752]
- IC50 [1]: > 2000 nM
- IC50 [2]: > 2000 nM
- IC50 [3]: > 2000 nM
- IC50 [4]: > 2000 nM
- IC50 [5]: > 2000 nM
- IC50 [6]: > 2000 nM
- IC50 [7]: > 2000 nM
- IC50 [8]: > 2000 nM
- IC50 [10]: > 2000 nM
- IC50 [11]: > 2000 nM
- IC50 [12]: > 2000 nM
- IC50 [13]: > 2000 nM
- IC50 [14]: > 2000 nM
- IC50 [15]: > 2000 nM
- IC50 [16]: > 2000 nM
- IC50 [17]: > 2000 nM
- IC50 [18]: > 2000 nM
- IC50 [19]: > 2000 nM
- IC50 [20]: > 2000 nM
- IC50 [21]: 359 nM
- IC50 [22]: > 2000 nM
- IC50 [23]: > 2000 nM
- IC50 [24]: > 2000 nM
- IC50 [25]: > 2000 nM
- IC50 [26]: > 2000 nM
- IC50 [27]: > 2000 nM
- IC50 [28]: > 2000 nM
- IC50 [29]: > 2000 nM
- IC50 [30]: > 2000 nM
- IC50 [31]: > 2000 nM
- IC50 [32]: > 2000 nM
- IC50 [33]: > 2000 nM
- IC50 [34]: > 2000 nM
- IC50 [35]: > 2000 nM
- IC50 [36]: > 2000 nM
- IC50 [37]: > 2000 nM
- IC50 [38]: > 2000 nM
- IC50 [39]: > 2000 nM
- IC50 [40]: > 2000 nM
- IC50 [41]: > 2000 nM
- IC50 [42]: > 2000 nM
- IC50 [43]: > 2000 nM
- IC50 [44]: > 2000 nM
- IC50 [45]: > 2000 nM
- IC50 [46]: > 2000 nM
- IC50 [47]: 124 nM
- IC50 [48]: > 2000 nM
- IC50 [49]: > 2000 nM
- IC50 [50]: > 2000 nM
- IC50 [51]: > 2000 nM
- IC50 [52]: > 2000 nM
- IC50 [53]: > 2000 nM
- IC50 [54]: > 2000 nM
- IC50 [55]: > 2000 nM
- IC50 [56]: 813 nM
- IC50 [57]: > 2000 nM
- IC50 [58]: > 2000 nM
- IC50 [59]: > 2000 nM
- IC50 [60]: > 2000 nM
- IC50 [61]: > 2000 nM
- IC50 [62]: > 2000 nM
- IC50 [63]: > 2000 nM
- IC50 [64]: > 2000 nM
- IC50 [65]: > 2000 nM
- IC50 [66]: > 2000 nM

SMILES: CO[C@@]12[C@H](COC(N)=O)C3=C(C(=O)C(C)=C(N)C3=O)N1C[C@@H]1N[C@@H]12 [MITOMYCIN]
- IC50 [1]: 78.7 nM
- IC50 [2]: 319 nM
- IC50 [3]: 540 nM
- IC50 [4]: 2470 nM
- IC50 [5]: 96.5 nM
- IC50 [6]: 1030 nM
- IC50 [7]: < 62.5 nM
- IC50 [8]: 61.9 nM
- IC50 [9]: 596 nM
- IC50 [10]: 1390 nM
- IC50 [11]: 121 nM
- IC50 [12]: 15.7 nM
- IC50 [13]: 589 nM
- IC50 [14]: 106 nM
- IC50 [15]: 20.2 nM
- IC50 [16]: < 62.5 nM
- IC50 [17]: 186 nM
- IC50 [18]: 4560 nM
- IC50 [19]: 1780 nM
- IC50 [20]: 129 nM
- IC50 [21]: 8610 nM
- IC50 [22]: 1620 nM
- IC50 [23]: 364 nM
- IC50 [24]: 150 nM
- IC50 [25]: 1650 nM
- IC50 [26]: 430 nM
- IC50 [27]: 780 nM
- IC50 [28]: 450 nM
- IC50 [29]: 193 nM
- IC50 [30]: 1310 nM
- IC50 [31]: 585 nM
- IC50 [32]: < 62.5 nM
- IC50 [33]: 991 nM
- IC50 [34]: 344 nM
- IC50 [35]: 2820 nM
- IC50 [36]: 81.7 nM
- IC50 [37]: 646 nM
- IC50 [38]: 218 nM
- IC50 [39]: 375 nM
- IC50 [40]: 523 nM
- IC50 [41]: 283 nM
- IC50 [42]: 260 nM
- IC50 [43]: 403 nM
- IC50 [44]: 412 nM
- IC50 [45]: 2800 nM
- IC50 [46]: 156 nM
- IC50 [47]: 141 nM
- IC50 [48]: 103 nM
- IC50 [49]: 264 nM
- IC50 [50]: 864 nM
- IC50 [51]: 127 nM
- IC50 [52]: 167 nM
- IC50 [53]: 82.8 nM
- IC50 [54]: 104 nM
- IC50 [55]: 35 nM
- IC50 [56]: 31 nM
- IC50 [57]: 221 nM
- IC50 [58]: 2620 nM
- IC50 [59]: < 62.5 nM
- IC50 [60]: 862 nM
- IC50 [61]: 932 nM
- IC50 [62]: 132 nM
- IC50 [63]: 500 nM
- IC50 [64]: 866 nM
- IC50 [65]: 52.2 nM
- IC50 [66]: 300 nM
